Assays:
[1] = Physical stability of the crystal form on exposure to ambient conditions or elevated humidity; assay type: physicochemical
[2] = Dynamic Vapor Sorption (DVS) analysis; assay type: physicochemical; conditions: between 0-90% relative humidity, 25° C.
Method: Dynamic Vapor Sorption (DVS). DVS experiments were conducted on a Surface Measurement Systems DVS-HT at 25° C. The instrument was operated in step mode and the relative humidity was increased in 10% RH increments from 40% RH to 90% RH, then decreased from 90% RH to 0% RH, then increased from 0% RH to 90% RH, then decreased from 90% RH to 0% RH. An extra step at 75% RH was included in each cycle. The mass equilibrium criterion was set at 0.005% change in mass over time (dm/dt) prior to each humidity level. A minimum step time of 10 minutes and a maximum step time of 240 minutes were specified.

[2H]C([2H])([2H])C(c1cc2nnc(-c3cc(F)ccc3F)n2nc1OCc1ncnn1C)(C([2H])([2H])[2H])C([2H])([2H])[2H] [Form 2, 7-(tert-Butyl-d9)-3-(2,5-difluorophenyl)-6-((1-methyl-1H-1,2,4-triazol-5-yl)methoxy)-[1,2,4]triazolo[4,3-b]pyridazine]
physical stability at elevated humidity (75% or 95% RH) ([1]; 75% or 95% RH, 5 days): physically stable | physical stability at 75-97% relative humidity ([1]; 75-97% relative humidity, five days): physically stable | physical stability at ambient conditions ([1]; ambient conditions, at least two weeks): physically stable | weight gain by DVS [2]: up to 2.5 % wt

Source: patent US20150119398A1, “FORM 2 POLYMORPH OF 7-(TERT-BUTYL-D9)-3-(2,5-DIFLUOROPHENYL)-6-((1-METHYL-1H-1,2,4-TRIAZOL-5-YL)METHOXY)-[1,2,4]TRIAZOLO[4,3-B]PYRIDAZINE” (Concert Pharmaceuticals Inc., priority 2012, published 2015)
